Values joined by “and” are separate entries in the source; they are usually repeats but may differ in a detail not shown here. Equal entries are not always repeated. Inconclusive results and toxic doses are left out. The calls were made as follows: active = survival T/C of 150% or more; inactive = T/C below 125% in these data.
Test system: CD2F1 mice, L1210 leukemia ip, survival T/C
Assay: NCI In Vivo Anticancer Drug Screen. Data for tumor model L1210 Leukemia (intraperitoneal) in CD2F1 (CDF1) mice
Conditions: higher = longer survival
Outline: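 In this screen, transplantable tumors were grown in mice given either the compound or its vehicle. Results were expressed as the treated measurement relative to the control measurement.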

[1] = endpoint: mean survival time, dose: 1.0 mg/kg/injection, schedule: Q01DX009 (ip), vehicle: saline
[2] = endpoint: mean survival time, dose: 2.0 mg/kg/injection, schedule: Q01DX009 (ip), vehicle: saline
[3] = endpoint: mean survival time, dose: 100.0 mg/kg/injection, schedule: Q01DX009 (ip), vehicle: saline with Tween-80
[4] = endpoint: mean survival time, dose: 100.0 mg/kg/injection, schedule: Q04DX003 (ip), vehicle: saline with Tween-80
[5] = endpoint: mean survival time, dose: 200.0 mg/kg/injection, schedule: Q01DX009 (ip), vehicle: saline with Tween-80
[6] = endpoint: mean survival time, dose: 200.0 mg/kg/injection, schedule: Q04DX003 (ip), vehicle: saline with Tween-80
[7] = endpoint: mean survival time, dose: 400.0 mg/kg/injection, schedule: Q04DX003 (ip), vehicle: saline with Tween-80
[8] = endpoint: mean survival time, dose: 50.0 mg/kg/injection, schedule: Q01DX009 (ip), vehicle: saline with Tween-80
[9] = endpoint: mean survival time, dose: 100.0 mg/kg/injection, schedule: Q01DX001 (ip), vehicle: saline with Tween-80
[10] = endpoint: mean survival time, dose: 200.0 mg/kg/injection, schedule: Q01DX001 (ip), vehicle: saline with Tween-80
[11] = endpoint: mean survival time, dose: 400.0 mg/kg/injection, schedule: Q01DX001 (ip), vehicle: saline with Tween-80

Measured: T/C

CCCCCC(Br)C(Br)CC(Br)C(Br)CC(Br)C(Br)CCCCC(=O)O (stereo not drawn)
inactive: endpoint: mean survival time, dose: 100.0 mg/kg/injection, schedule: Q01DX001 (ip), vehicle: Klucel (hydroxypropylcellulose) (HPC) 101 % of control | endpoint: mean survival time, dose: 200.0 mg/kg/injection, schedule: Q01DX001 (ip), vehicle: Klucel (hydroxypropylcellulose) (HPC) 96 % of control | endpoint: mean survival time, dose: 400.0 mg/kg/injection, schedule: Q01DX001 (ip), vehicle: Klucel (hydroxypropylcellulose) (HPC) 107 % of control

CC(C)N1CCC1C(=O)O (stereo not drawn)
inactive: endpoint: mean survival time, dose: 100.0 mg/kg/injection, schedule: Q01DX009 (ip), vehicle: saline sonified 97 % of control | endpoint: mean survival time, dose: 200.0 mg/kg/injection, schedule: Q01DX009 (ip), vehicle: saline sonified 105 % of control | endpoint: mean survival time, dose: 400.0 mg/kg/injection, schedule: Q01DX009 (ip), vehicle: saline sonified 97 % of control

COc1cccc2c1C(=O)c1c(O)c3c(c(O)c1C2=O)C[C@@](O)(C(=O)CO)C[C@@H]3OC1CC(N(C)C)C(O)C(C)O1 (stereo partly drawn)
inactive: endpoint: mean survival time, dose: 0.25 mg/kg/injection, schedule: Q01DX009 (ip), vehicle: saline 118 % of control and 108 % of control | endpoint: mean survival time, dose: 0.5 mg/kg/injection, schedule: Q01DX009 (ip), vehicle: saline 117 % of control and 121 % of control | [1] 115 % of control and 124 % of control | [2] 97 % of control and 102 % of control

O=C(COc1ccccc1)N/N=C/c1ccccc1O
inactive: [3] 92 % of control

Cc1cc(N(CCCl)CCCl)ccc1C1N(Cc2ccc(N(C)C)cc2)CCCN1Cc1ccc(N(C)C)cc1
inactive: [3] 101 % of control | [4] 98 % of control | [5] 101 % of control | [6] 101 % of control | endpoint: mean survival time, dose: 400.0 mg/kg/injection, schedule: Q01DX009 (ip), vehicle: saline with Tween-80 108 % of control | [7] 108 % of control

O=C(O)/C=C/c1ccc(Cl)cc1Cl
inactive: [4] 95 % of control | [6] 95 % of control | [7] 86 % of control

CCOC(=O)CC(=O)c1[nH]c(C)c(C(=O)OCC)c1C
inactive: [4] 101 % of control | [6] 103 % of control | [7] 101 % of control

CNC(=O)OC(C)CC(O)(C(F)(F)F)C(F)(F)F (stereo not drawn)
inactive: endpoint: mean survival time, dose: 25.0 mg/kg/injection, schedule: Q01DX009 (ip), vehicle: saline with Tween-80 97 % of control | endpoint: mean survival time, dose: 25.0 mg/kg/injection, schedule: Q04DX003 (ip), vehicle: saline with Tween-80 96 % of control | [8] 101 % of control | endpoint: mean survival time, dose: 50.0 mg/kg/injection, schedule: Q04DX003 (ip), vehicle: saline with Tween-80 98 % of control | [3] 98 % of control | endpoint: mean survival time, dose: 100.0 mg/kg/injection, schedule: Q04DX003 (ip), vehicle: Klucel (hydroxypropylcellulose) (HPC) 96 % of control | [4] 98 % of control

C(CN1CCOCC1)CN1CN(CCCN2CCOCC2)CN(CCCN2CCOCC2)C1
inactive: [4] 106 % of control | [6] 101 % of control | [7] 113 % of control

O=C(COc1ccc(Cl)c(Cl)c1)Nc1ccc(C(=O)CCl)cc1
inactive: [4] 100 % of control | [6] 97 % of control | [7] 114 % of control

CC(C)(C)CC(C)(C)c1ccc(Oc2ccc([N+](=O)[O-])cc2S(=O)(=O)O)cc1
inactive: endpoint: mean survival time, dose: 6.25 mg/kg/injection, schedule: Q04DX002 (ip), vehicle: saline with Tween-80 96 % of control | endpoint: mean survival time, dose: 12.5 mg/kg/injection, schedule: Q04DX002 (ip), vehicle: saline with Tween-80 114 % of control | endpoint: mean survival time, dose: 25.0 mg/kg/injection, schedule: Q04DX002 (ip), vehicle: saline with Tween-80 87 % of control and 93 % of control

C1CNCOC1
inactive: endpoint: mean survival time, dose: 6.25 mg/kg/injection, schedule: Q01DX009 (ip), vehicle: saline 100 % of control | endpoint: mean survival time, dose: 12.5 mg/kg/injection, schedule: Q01DX009 (ip), vehicle: saline 95 % of control and 97 % of control | endpoint: mean survival time, dose: 25.0 mg/kg/injection, schedule: Q01DX009 (ip), vehicle: saline 100 % of control and 102 % of control | endpoint: mean survival time, dose: 50.0 mg/kg/injection, schedule: Q01DX009 (ip), vehicle: saline 101 % of control and 110 % of control | endpoint: mean survival time, dose: 100.0 mg/kg/injection, schedule: Q01DX009 (ip), vehicle: saline 106 % of control and 107 % of control | endpoint: mean survival time, dose: 200.0 mg/kg/injection, schedule: Q01DX009 (ip), vehicle: saline 100 % of control | endpoint: median survival time, dose: 6.25 mg/kg/injection, schedule: Q01DX009 (ip), vehicle: saline 100 % of control | endpoint: median survival time, dose: 12.5 mg/kg/injection, schedule: Q01DX009 (ip), vehicle: saline 102 % of control | endpoint: median survival time, dose: 25.0 mg/kg/injection, schedule: Q01DX009 (ip), vehicle: saline 107 % of control | endpoint: median survival time, dose: 50.0 mg/kg/injection, schedule: Q01DX009 (ip), vehicle: saline 107 % of control | endpoint: median survival time, dose: 100.0 mg/kg/injection, schedule: Q01DX009 (ip), vehicle: saline 112 % of control

CCCCCCCCCCCCCCCCCCCOc1ccc(OCCCCCCCCCC)cc1
inactive: [9] 95 % of control | [10] 86 % of control | [11] 86 % of control

CCOC(=O)C(=CC(C(=O)OCC)C(=O)OCC)C(=O)OCC
inactive: [9] 93 % of control | [10] 104 % of control | [11] 96 % of control

CSCCC(NC(=O)CN)C(=O)O (stereo not drawn)
inactive: [8] 96 % of control | [3] 92 % of control | [5] 100 % of control

Cc1c(N)nc(C(CC(N)=O)NCC(N)C(N)=O)nc1C(=O)NC(C(=O)NC(C)C(O)CC(=O)NC(C(=O)NC(OC1OC(C)C(N)C(O)C1O)C(O)c1nc(-c2nc(C(=O)NCCCC(N)CC(=O)NCCCNCCCCN)cs2)cs1)C(C)O)C(OC1OC(CO)C(O)C(O)C1OC1OC(CO)C(O)C(OC(N)=O)C1O)c1cnc[nH]1 (stereo not drawn)
inactive: [1] 103 % of control | [2] 101 % of control | endpoint: mean survival time, dose: 4.0 mg/kg/injection, schedule: Q01DX009 (ip), vehicle: saline 104 % of control | endpoint: mean survival time, dose: 8.0 mg/kg/injection, schedule: Q01DX009 (ip), vehicle: saline 104 % of control | endpoint: mean survival time, dose: 16.0 mg/kg/injection, schedule: Q01DX009 (ip), vehicle: saline 86 % of control

O=c1[nH]c2c(ncn2C2OC3COP(=O)(O)OC3C2O)c2nccn12 (stereo not drawn)
inactive: endpoint: mean survival time, dose: 12.5 mg/kg/injection, schedule: Q01DX005 (ip), vehicle: distilled water + Tween-80 97 % of control | endpoint: mean survival time, dose: 25.0 mg/kg/injection, schedule: Q01DX005 (ip), vehicle: distilled water + Tween-80 97 % of control | endpoint: mean survival time, dose: 50.0 mg/kg/injection, schedule: Q01DX005 (ip), vehicle: distilled water + Tween-80 97 % of control | endpoint: mean survival time, dose: 100.0 mg/kg/injection, schedule: Q01DX005 (ip), vehicle: distilled water + Tween-80 100 % of control

Cc1cnnc(N(C)N)c1
inactive: endpoint: mean survival time, dose: 12.5 mg/kg/injection, schedule: Q04DX002 (ip), vehicle: saline 107 % of control | endpoint: mean survival time, dose: 25.0 mg/kg/injection, schedule: Q04DX002 (ip), vehicle: saline 114 % of control | endpoint: mean survival time, dose: 50.0 mg/kg/injection, schedule: Q04DX002 (ip), vehicle: saline 96 % of control

CCCN(CCC)CCCCCCO
inactive: [8] 98 % of control | [3] 98 % of control | [5] 97 % of control

Nc1nc2cc[nH]c2c(=O)[nH]1
inactive: endpoint: median survival time, dose: 50.0 mg/kg/injection, schedule: Q01DX005 (ip), vehicle: saline with Tween-80 94 % of control | endpoint: median survival time, dose: 100.0 mg/kg/injection, schedule: Q01DX005 (ip), vehicle: saline with Tween-80 97 % of control | endpoint: median survival time, dose: 200.0 mg/kg/injection, schedule: Q01DX005 (ip), vehicle: saline with Tween-80 92 % of control

C1C2OC2CC2OC12 (stereo not drawn)
inactive: [9] 97 % of control | [10] 97 % of control | [11] 98 % of control

CCC[CH2][Sn]1([CH2]CCC)[O]OC(C)(CC)[O]1 (stereo not drawn)
inactive: endpoint: mean survival time, dose: 0.78 mg/kg/injection, schedule: Q01DX009 (ip), vehicle: saline with Tween-80 95 % of control | endpoint: mean survival time, dose: 1.56 mg/kg/injection, schedule: Q01DX009 (ip), vehicle: saline with Tween-80 110 % of control | endpoint: mean survival time, dose: 3.13 mg/kg/injection, schedule: Q01DX009 (ip), vehicle: saline with Tween-80 112 % of control
